We go through three compounds from ChEMBL document CHEMBL5715954, “Silencing c-Myc translation as a therapeutic strategy through targeting PI3Kδ and CK1ε in hematological malignancies” (Blood, 2017).

The structures appear in SMILES notation.

Common to all, as to parameters: scale not given: the % may be the effect or the level left
Experiment [1] addresses Tyrosine-protein kinase ABL1 (Homo sapiens) (UniProt P00519). Put plainly: Inhibition of human ABL1 assessed as enzyme activity at 1 uM using EAIYAAPFAKKK as substrate preincubated for 20 mins followed by [gamma-33P]-ATP addition and measured after 120 mins by radiometric Hot-SpotSM Kinase assay relative to control.
The target of experiment [2] is T1, TGF-beta receptor type-1 (Homo sapiens) (UniProt P36897).
T1 sequence (whole entry): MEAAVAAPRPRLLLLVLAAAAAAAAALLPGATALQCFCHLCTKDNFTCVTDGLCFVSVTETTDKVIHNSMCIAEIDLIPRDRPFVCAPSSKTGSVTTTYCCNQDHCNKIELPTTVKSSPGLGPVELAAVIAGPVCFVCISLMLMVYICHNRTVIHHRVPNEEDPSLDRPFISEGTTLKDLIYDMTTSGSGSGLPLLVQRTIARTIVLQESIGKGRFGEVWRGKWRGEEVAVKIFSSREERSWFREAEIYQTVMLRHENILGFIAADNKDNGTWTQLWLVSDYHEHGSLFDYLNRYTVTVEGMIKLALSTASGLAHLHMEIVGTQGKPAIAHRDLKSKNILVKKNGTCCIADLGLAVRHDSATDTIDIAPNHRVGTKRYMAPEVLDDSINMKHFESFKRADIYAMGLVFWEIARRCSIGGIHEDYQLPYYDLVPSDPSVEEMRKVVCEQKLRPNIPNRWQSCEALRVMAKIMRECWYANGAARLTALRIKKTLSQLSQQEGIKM
The experiment in a line: Inhibition of human ALK5 assessed as enzyme activity at 1 uM using casein as substrate preincubated for 20 mins followed by [gamma-33P]-ATP addition and measured after 120 mins by radiometric Hot-SpotSM Kinase assay relative to control.

Experiment [3] concerns the target CDK9/cyclin T1 (Homo sapiens) (UniProt O60563+P50750). The experiment in a line: Inhibition of human CDK9/cyclin T1 assessed as enzyme activity at 1 uM using KTFCGTPEYLAPEVRREPRILSEEEQEMFRDFDYIADWC as substrate preincubated for 20 mins followed by [gamma-33P]-ATP addition and measured after 120 mins by radiometric Hot-SpotSM Kinase assay relative to control. It is filed as protein-complex assay.

Experiment [4] deals with Casein kinase II subunit alpha' (Homo sapiens) (UniProt P19784). Put plainly: Inhibition of human CK2a2 assessed as enzyme activity at 1 uM using RRRDDDSDDD as substrate preincubated for 20 mins followed by [gamma-33P]-ATP addition and measured after 120 mins by radiometric Hot-SpotSM Kinase assay relative to control.
Sequence of Casein kinase II subunit alpha' (Homo sapiens) (P19784 whole entry, looked up): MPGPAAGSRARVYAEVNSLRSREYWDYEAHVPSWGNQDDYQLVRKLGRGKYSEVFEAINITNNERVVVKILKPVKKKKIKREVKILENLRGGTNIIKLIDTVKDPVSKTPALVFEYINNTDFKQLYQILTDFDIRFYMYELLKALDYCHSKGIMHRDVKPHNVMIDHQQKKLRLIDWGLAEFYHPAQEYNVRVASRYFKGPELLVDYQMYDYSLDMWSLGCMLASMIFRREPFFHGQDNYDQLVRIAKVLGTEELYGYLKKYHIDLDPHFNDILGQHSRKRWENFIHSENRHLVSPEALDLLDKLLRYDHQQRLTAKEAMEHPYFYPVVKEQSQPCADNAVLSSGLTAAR
The target in experiment [5] is Mitogen-activated protein kinase 1 (Homo sapiens) (UniProt P28482). Put plainly: Inhibition of human ERK2 assessed as enzyme activity at 1 uM using myelin basic protein as substrate preincubated for 20 mins followed by [gamma-33P]-ATP addition and measured after 120 mins by radiometric Hot-SpotSM Kinase assay relative to control.
Sequence of Mitogen-activated protein kinase 1 (Homo sapiens) (P28482 whole entry): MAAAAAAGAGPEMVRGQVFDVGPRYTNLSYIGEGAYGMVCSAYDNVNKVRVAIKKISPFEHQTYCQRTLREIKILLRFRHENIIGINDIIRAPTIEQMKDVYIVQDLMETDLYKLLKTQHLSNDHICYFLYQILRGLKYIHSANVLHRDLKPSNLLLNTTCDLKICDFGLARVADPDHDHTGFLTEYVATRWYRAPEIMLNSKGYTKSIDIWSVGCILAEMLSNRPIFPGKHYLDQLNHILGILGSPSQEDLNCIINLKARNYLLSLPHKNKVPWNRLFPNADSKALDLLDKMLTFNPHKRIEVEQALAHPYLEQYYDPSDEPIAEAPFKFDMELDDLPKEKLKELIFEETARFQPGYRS
Experiment [6] addresses Tyrosine-protein kinase Fer (Homo sapiens) (UniProt P16591). Put plainly: Inhibition of human FER assessed as enzyme activity at 1 uM using poly[Glu:Tyr] (4:1) as substrate preincubated for 20 mins followed by [gamma-33P]-ATP addition and measured after 120 mins by radiometric Hot-SpotSM Kinase assay relative to control.
Experiment [7] addresses MAP kinase-activated protein kinase 2 (Homo sapiens) (UniProt P49137). Put plainly: Inhibition of human MAPKAPK2 assessed as enzyme activity at 1 uM using KKLNRTLSVA as substrate preincubated for 20 mins followed by [gamma-33P]-ATP addition and measured after 120 mins by radiometric Hot-SpotSM Kinase assay relative to control.
For experiment [8], the target named is T2, Mitogen-activated protein kinase kinase kinase 2 (Homo sapiens) (UniProt Q9Y2U5).
T2 sequence (whole entry): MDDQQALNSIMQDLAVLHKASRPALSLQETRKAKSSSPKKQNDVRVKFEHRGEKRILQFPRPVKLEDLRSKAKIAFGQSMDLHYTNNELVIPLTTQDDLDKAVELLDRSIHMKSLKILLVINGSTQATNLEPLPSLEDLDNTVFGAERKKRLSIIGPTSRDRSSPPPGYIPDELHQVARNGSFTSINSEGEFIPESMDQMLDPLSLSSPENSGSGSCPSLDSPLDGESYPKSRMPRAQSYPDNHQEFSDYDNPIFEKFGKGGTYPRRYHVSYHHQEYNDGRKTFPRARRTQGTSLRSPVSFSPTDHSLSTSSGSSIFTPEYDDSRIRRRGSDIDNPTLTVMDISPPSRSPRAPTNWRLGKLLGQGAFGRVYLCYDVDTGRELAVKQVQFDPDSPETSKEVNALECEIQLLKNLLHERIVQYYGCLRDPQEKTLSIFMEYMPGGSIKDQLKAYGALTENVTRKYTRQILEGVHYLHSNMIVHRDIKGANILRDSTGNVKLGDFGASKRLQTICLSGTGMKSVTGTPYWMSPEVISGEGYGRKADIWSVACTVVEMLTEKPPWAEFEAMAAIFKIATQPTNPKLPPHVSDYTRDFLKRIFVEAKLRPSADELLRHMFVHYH
The experiment in a line: Inhibition of human MEKK2 assessed as enzyme activity at 1 uM using myelin basic protein as substrate preincubated for 20 mins followed by [gamma-33P]-ATP addition and measured after 120 mins by radiometric Hot-SpotSM Kinase assay relative to control.

The target of experiment [9] is Mitogen-activated protein kinase kinase kinase 10 (Homo sapiens) (UniProt Q02779). The experiment in a line: Inhibition of human MLK2 assessed as enzyme activity at 1 uM using myelin basic protein as substrate preincubated for 20 mins followed by [gamma-33P]-ATP addition and measured after 120 mins by radiometric Hot-SpotSM Kinase assay relative to control.
Sequence of Mitogen-activated protein kinase kinase kinase 10 (Homo sapiens) (Q02779 whole entry, looked up): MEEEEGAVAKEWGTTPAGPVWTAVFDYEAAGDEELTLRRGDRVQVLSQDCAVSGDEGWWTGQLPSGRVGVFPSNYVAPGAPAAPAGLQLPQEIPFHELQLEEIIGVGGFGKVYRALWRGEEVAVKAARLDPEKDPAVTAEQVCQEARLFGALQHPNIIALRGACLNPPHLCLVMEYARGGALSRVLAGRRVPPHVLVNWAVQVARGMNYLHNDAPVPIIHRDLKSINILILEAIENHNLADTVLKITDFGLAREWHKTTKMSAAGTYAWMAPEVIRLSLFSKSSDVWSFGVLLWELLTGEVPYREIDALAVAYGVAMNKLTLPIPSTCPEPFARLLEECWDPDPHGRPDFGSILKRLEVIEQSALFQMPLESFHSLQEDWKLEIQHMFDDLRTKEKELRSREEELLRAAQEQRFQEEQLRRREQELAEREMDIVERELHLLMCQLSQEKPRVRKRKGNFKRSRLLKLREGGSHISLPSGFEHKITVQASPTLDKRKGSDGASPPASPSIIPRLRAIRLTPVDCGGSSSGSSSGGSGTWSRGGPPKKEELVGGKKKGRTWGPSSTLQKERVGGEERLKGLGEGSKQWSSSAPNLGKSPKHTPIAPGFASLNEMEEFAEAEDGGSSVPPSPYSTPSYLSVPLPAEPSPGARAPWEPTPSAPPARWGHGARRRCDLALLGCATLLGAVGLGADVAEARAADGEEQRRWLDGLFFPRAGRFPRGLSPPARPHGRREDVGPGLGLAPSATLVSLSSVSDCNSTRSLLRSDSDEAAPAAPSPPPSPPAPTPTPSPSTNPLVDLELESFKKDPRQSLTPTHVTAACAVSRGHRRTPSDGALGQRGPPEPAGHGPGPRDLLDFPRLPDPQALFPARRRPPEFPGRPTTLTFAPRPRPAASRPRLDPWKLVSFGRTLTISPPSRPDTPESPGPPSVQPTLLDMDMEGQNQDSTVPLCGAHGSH
Experiment [10] addresses Serine/threonine-protein kinase 26 (Homo sapiens) (UniProt Q9P289). Put plainly: Inhibition of human MST4 assessed as enzyme activity at 1 uM using myelin basic protein as substrate preincubated for 20 mins followed by [gamma-33P]-ATP addition and measured after 120 mins by radiometric Hot-SpotSM Kinase assay relative to control.
The target of experiment [11] is PAS domain-containing serine/threonine-protein kinase (Homo sapiens) (UniProt Q96RG2). Put plainly: Inhibition of human PASK assessed as enzyme activity at 1 uM using KKLNRTLSFAEPG as substrate preincubated for 20 mins followed by [gamma-33P]-ATP addition and measured after 120 mins by radiometric Hot-SpotSM Kinase assay relative to control.

Sequence of Tyrosine-protein kinase Fer (Homo sapiens) (P16591 whole entry, looked up): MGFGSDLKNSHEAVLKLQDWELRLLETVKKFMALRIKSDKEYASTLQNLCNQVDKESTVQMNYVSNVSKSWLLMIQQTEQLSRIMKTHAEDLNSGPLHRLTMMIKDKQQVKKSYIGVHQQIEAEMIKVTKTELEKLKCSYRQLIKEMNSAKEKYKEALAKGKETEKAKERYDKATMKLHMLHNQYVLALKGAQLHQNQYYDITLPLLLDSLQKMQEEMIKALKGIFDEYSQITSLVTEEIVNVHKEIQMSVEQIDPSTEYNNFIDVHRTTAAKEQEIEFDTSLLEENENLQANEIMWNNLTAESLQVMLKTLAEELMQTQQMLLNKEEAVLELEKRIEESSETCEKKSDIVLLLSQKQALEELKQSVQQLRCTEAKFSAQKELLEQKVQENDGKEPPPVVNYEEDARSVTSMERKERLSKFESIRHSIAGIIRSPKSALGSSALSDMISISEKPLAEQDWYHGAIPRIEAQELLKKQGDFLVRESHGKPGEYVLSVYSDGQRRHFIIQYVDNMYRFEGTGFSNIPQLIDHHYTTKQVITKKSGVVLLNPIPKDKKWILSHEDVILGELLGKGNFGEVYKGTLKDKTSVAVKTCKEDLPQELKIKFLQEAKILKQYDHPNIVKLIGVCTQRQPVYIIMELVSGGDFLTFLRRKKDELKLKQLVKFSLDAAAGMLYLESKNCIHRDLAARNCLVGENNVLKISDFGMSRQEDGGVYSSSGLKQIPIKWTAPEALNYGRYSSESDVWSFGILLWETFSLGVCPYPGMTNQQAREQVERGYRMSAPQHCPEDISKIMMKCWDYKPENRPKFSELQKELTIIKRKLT
Sequence of Tyrosine-protein kinase ABL1 (Homo sapiens) (P00519 whole entry): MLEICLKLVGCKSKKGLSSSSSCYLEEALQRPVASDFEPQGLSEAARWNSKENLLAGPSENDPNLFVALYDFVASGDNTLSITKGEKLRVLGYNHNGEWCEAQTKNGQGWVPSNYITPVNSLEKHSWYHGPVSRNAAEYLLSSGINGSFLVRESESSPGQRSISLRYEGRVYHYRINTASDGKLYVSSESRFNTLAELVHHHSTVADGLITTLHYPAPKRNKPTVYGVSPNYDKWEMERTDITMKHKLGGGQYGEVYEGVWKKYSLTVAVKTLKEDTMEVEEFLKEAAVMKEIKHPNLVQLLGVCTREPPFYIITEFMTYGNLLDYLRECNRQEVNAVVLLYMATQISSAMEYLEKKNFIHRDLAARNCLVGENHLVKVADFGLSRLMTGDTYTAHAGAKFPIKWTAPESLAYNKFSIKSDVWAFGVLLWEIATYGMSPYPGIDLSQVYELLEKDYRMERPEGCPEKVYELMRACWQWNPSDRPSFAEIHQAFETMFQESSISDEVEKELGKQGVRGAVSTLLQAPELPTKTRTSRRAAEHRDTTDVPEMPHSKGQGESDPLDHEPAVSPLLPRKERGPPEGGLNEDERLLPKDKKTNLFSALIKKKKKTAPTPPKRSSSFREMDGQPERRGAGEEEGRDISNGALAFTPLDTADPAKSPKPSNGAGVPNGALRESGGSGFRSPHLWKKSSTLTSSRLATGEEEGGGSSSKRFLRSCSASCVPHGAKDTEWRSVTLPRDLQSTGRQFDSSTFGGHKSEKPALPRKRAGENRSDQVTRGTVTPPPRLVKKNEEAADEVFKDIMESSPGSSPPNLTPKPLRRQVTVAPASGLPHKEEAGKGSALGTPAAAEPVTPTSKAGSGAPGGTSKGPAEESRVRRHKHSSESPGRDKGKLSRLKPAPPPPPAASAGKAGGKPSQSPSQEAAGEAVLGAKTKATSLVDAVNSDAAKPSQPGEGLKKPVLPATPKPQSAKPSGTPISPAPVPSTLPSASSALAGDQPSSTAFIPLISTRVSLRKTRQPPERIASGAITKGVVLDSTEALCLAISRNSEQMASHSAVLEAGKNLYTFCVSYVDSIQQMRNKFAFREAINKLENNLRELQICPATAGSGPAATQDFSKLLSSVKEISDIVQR
Sequence of MAP kinase-activated protein kinase 2 (Homo sapiens) (P49137 whole entry, looked up): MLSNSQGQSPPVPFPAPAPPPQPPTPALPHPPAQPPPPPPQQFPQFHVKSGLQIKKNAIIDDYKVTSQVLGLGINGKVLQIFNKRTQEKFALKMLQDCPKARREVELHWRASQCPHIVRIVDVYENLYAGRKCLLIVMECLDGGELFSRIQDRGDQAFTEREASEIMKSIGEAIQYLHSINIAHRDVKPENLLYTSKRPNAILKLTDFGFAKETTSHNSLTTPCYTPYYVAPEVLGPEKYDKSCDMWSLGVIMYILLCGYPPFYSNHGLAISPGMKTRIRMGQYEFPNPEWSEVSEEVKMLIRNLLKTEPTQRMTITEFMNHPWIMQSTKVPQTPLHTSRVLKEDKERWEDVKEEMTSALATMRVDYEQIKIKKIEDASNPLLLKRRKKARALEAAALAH
Sequence of Serine/threonine-protein kinase 26 (Homo sapiens) (Q9P289 2-416 limits assumed): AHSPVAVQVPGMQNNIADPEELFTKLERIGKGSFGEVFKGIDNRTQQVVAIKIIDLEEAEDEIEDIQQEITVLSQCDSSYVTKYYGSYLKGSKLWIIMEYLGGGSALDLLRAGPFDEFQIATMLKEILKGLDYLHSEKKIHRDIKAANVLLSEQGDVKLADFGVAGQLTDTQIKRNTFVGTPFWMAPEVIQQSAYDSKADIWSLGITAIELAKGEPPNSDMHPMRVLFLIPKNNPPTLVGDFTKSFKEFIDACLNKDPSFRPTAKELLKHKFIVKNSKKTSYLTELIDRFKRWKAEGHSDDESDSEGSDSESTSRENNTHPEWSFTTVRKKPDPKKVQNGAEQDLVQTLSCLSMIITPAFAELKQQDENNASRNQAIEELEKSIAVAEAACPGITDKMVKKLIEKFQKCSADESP

Consider `C[C@H](Nc1ncnc2nc[nH]c12)c1cc2cccc(Cl)c2c(=O)n1-c1ccccc1`, for which the Activity is 97.2% in [1]; 108% in experiment [2]; 96.2% in experiment [3]; 99.5% in experiment [4]; 97.2% in [5]; 91.7% in [6]. Besides, the Activity came out at 96.5% in experiment [7]; 94.9% in experiment [8]; 103% in [9]; 83.5% in [10]; 95.3% in experiment [11].

Regarding `CC[C@H](Nc1ncnc2[nH]cnc12)c1nc2cccc(F)c2c(=O)n1-c1ccccc1`, the Activity in experiment [1] turned out to be 99.5%; in experiment [2], 108%; in experiment [3] it was 89.5%; in [4] it was 91.8%; in [5], 93.6%; in experiment [6], 97.2%. For the same compound, the Activity in experiment [7] worked out at 96.2%; in experiment [8], 101%; in experiment [9], 112%; in experiment [10], 91.5%; in experiment [11], 99.6%.

For the compound `CC(C)Oc1ccc(-c2nn([C@@H](C)c3oc4ccc(F)cc4c(=O)c3-c3cccc(F)c3)c3ncnc(N)c23)cc1F` [UMBRALISIB], the Activity came to 95.1% in experiment [1]; 109% in [2]; 98.5% in experiment [3]; 86.4% in [4]; 94.2% in experiment [5]; 94.5% in experiment [6]. For the same compound, the Activity in [7] turned out to be 91.4%; in experiment [8] it was 108%; in experiment [9], 108%; in [10], 88.2%; in experiment [11], 98.7%.
